How the values were obtained:
Format in all cases: in vivo
beet = test: Test Example 4: effect on crop by soil treatment (symbol f); conditions: for f: beet, effect grade on crop: 320 g/ha; for Effect on crop grade, f: beet: application herbicide amount 320 g/ha
How it was run: (§1)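 The test used sterilized diluvial soil. Seed was set down in spots and overlaid with about 1.5 cm of soil before growth in a greenhouse kept at 25° C. to 30° C.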

Avena fatua = test: Test Example 5: herbicidal effect by foliage application, plastic box (symbol I); conditions: 320 g/ha, 3 weeks after application
How it was run: (§2)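 Effect is rated 3 weeks after a foliar spray of water-diluted emulsion concentrate at a predetermined herbicide amount. Plants had grown 14 days in a 25° C. to 30° C. greenhouse from seed in sterilized diluvial soil.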

Stellaria media [1] = test: Test Example 5: herbicidal effect by foliage application, plastic box (symbol P); conditions: 320 g/ha, 3 weeks after application
How it was run: as §2

transplanted rice plant = test: Test Example 1: effect on crop, application before weed generation in submerged conditions (symbol a); conditions: application herbicide amount 320 g/ha
How it was run: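 Alluvial soil pots flooded to 4 cm water, sown with Echinochloa oryzacola, Scirpus juncoides and Monochoria vaginalis, then transplanted with 2.5 leaf stage rice seedlings; pre-emergence application. Greenhouse 25° C. to 30° C.; scored 0–5 by herbicidal ratio 3 weeks after application.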

rice = test: Test Example 4: effect on crop by soil treatment (symbol b); conditions: for b: directly sowed rice plant, effect grade on crop: 320 g/ha; for Effect on crop grade, b: directly sowed rice plant: application herbicide amount 320 g/ha
How it was run: as §1

Monochoria vaginalis = test: Test Example 2: herbicidal activity, application during weed generation in submerged conditions (symbol C); conditions: Table 23; application herbicide amount 320 g/ha; grade 0-5 by criteria of Test Example 1
How it was run: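 Visual herbicidal ratings, taken three weeks after dosing, reflect post-emergence water-surface application to seedlings at one to two leaves. Conditions: co-sown weeds in alluvial soil flooded to 4 cm, greenhouse held at 25° C. to 30° C.; compound given as water-diluted emulsion at a fixed herbicide amount.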

Stellaria media [2] = test: Test Example 4: herbicidal effect by soil treatment (symbol P); conditions: for P: Stellaria media, herbicidal effect grade: 320 g/ha; for Herbicidal effect grade, P: Stellaria media: application herbicide amount 320 g/ha
How it was run: (§3)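 Seeds were sown in sterilized diluvial soil, covered with about 1.5 cm of soil, and the soil surface was sprayed with a water-diluted emulsion of the compound at a predetermined rate. Plants grew in a greenhouse at 25° C. to 30° C.; effects were scored visually 3 weeks after application.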

rice plant = test: Test Example 5: effect on crop by foliage application, plastic box (symbol b); conditions: 320 g/ha, 3 weeks after application
How it was run: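 Soil: sterilized diluvial. Container: plastic box, 21 × 13 cm, 7 cm deep. Sowing: spot-like, ~1.5 cm cover. Growth: greenhouse, 25° C. to 30° C.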

Setaria viridis = test: Test Example 5: herbicidal effect by foliage application, plastic box (symbol G); conditions: 320 g/ha, 3 weeks after application
How it was run: as §2

Galium spurium = test: Test Example 4: herbicidal effect by soil treatment (symbol Q); conditions: for Q: Galium spurium, herbicidal effect grade: 320 g/ha; for Herbicidal effect grade, Q: Galium spurium: application herbicide amount 320 g/ha
How it was run: as §3

Abutilon theophrasti = test: Test Example 5: herbicidal effect by foliage application, plastic box (symbol M); conditions: 320 g/ha, 3 weeks after application
How it was run: as §2

Amaranthus retroflexus = test: Test Example 4: herbicidal effect by soil treatment (symbol N); conditions: for N: Amaranthus retroflexus, herbicidal effect grade: 320 g/ha; for Herbicidal effect grade, N: Amaranthus retroflexus: application herbicide amount 320 g/ha
How it was run: as §3

Digitaria ciliaris = test: Test Example 5: herbicidal effect by foliage application, plastic box (symbol F); conditions: 320 g/ha, 3 weeks after application
How it was run: as §2

[3] = tested on: Echinochloa crus-galli var. crus-galli; test: Test Example 4: herbicidal effect by soil treatment (symbol H); conditions: for H: Echinochloa crus-galli var. crus-galli, herbicidal effect grade: 320 g/ha; for Herbicidal effect grade, H: Echinochloa crus-galli var. crus-galli: application herbicide amount 320 g/ha
How it was run: as §3

Row | SMILES | f: beet, effect grade on crop (beet) | I: Avena fatua, herbicidal effect (criteria 0-5) (Avena fatua) | P: Stellaria media, herbicidal effect (criteria 0-5) (Stellaria media [1]) | Effect grade on crop, a: transplanted rice plant (transplanted rice plant) | b: directly sowed rice plant, effect grade on crop (rice) | Herbicidal effect grade, C: Monochoria vaginalis (Monochoria vaginalis) | P: Stellaria media, herbicidal effect grade (Stellaria media [2]) | b: directly sowed rice plant, effect on crop (criteria 0-5) (rice plant) | G: Setaria viridis, herbicidal effect (criteria 0-5) (Setaria viridis) | Q: Galium spurium, herbicidal effect grade (Galium spurium) | M: Abutilon theophrasti, herbicidal effect (criteria 0-5) (Abutilon theophrasti) | N: Amaranthus retroflexus, herbicidal effect grade (Amaranthus retroflexus) | F: Digitaria ciliaris, herbicidal effect (criteria 0-5) (Digitaria ciliaris) | H: Echinochloa crus-galli var. crus-galli, herbicidal effect grade [3] | Effect on crop grade, f: beet (beet) | I: Avena fatua, herbicidal effect grade (Avena fatua) | P: Stellaria media, herbicidal effect grade (Stellaria media [1]) | a (transplanted rice plant) effect on crop grade (transplanted rice plant) | Effect on crop grade, b: directly sowed rice plant (rice) | Herbicidal effect grade, P: Stellaria media (Stellaria media [2]) | also measured
1 | CON=C(C)CC1CC(OS(=O)(=O)N(C)C)=C(c2c(C)cc(C)cc2C)C1=O (stereo not shown) [1-122] | 0 (Herbicidal ratio of 5% or lower (almost no effect)) | 5 (Herbicidal ratio of 90% or more (almost completely withered)) | 1 (Herbicidal ratio of 5% or higher and lower than 20%) | 5 (Herbicidal ratio of 90% or more (almost completely withered)) | 4 (Herbicidal ratio of 70% or higher and lower than 90%) | 0 (Herbicidal ratio of 5% or lower (almost no effect)) | 0 (Herbicidal ratio of 5% or lower (almost no effect)) | 5 (Herbicidal ratio of 90% or more (almost completely withered)) | 5 (Herbicidal ratio of 90% or more (almost completely withered)) | 0 (Herbicidal ratio of 5% or lower (almost no effect)) | 4 (Herbicidal ratio of 70% or higher and lower than 90%) | 0 (Herbicidal ratio of 5% or lower (almost no effect)) | 4 (Herbicidal ratio of 70% or higher and lower than 90%) | 4 (Herbicidal ratio of 70% or higher and lower than 90%) |  |  |  |  |  |  | 
2 | CON=C(CC1CC(O)=C(c2c(C)cc(-c3ccccc3)cc2C)C1=O)C1CC1 (mixture of isomers) [9-028] |  |  |  |  |  | 4 (Herbicidal ratio of 70% or higher and lower than 90%) |  |  |  |  |  |  |  |  | 0 (Herbicidal ratio of 5% or lower (almost no effect)) | 4 (Herbicidal ratio of 70% or higher and lower than 90%) | 3 (Herbicidal ratio of 40% or higher and lower than 70%) | 5 (Herbicidal ratio of 90% or more (almost completely withered)) | 3 (Herbicidal ratio of 40% or higher and lower than 70%) | 0 (Herbicidal ratio of 5% or lower (almost no effect)) | b: directly sowed rice plant, effect on crop grade (rice plant): 5 (Herbicidal ratio of 90% or more (almost completely withered)); G: Setaria viridis, herbicidal effect grade (Setaria viridis): 5 (Herbicidal ratio of 90% or more (almost completely withered)); Herbicidal effect grade, Q: Galium spurium (Galium spurium): 0 (Herbicidal ratio of 5% or lower (almost no effect)); M: Abutilon theophrasti, herbicidal effect grade (Abutilon theophrasti): 1 (Herbicidal ratio of 5% or higher and lower than 20%); Herbicidal effect grade, N: Amaranthus retroflexus (Amaranthus retroflexus): 0 (Herbicidal ratio of 5% or lower (almost no effect)); F: Digitaria ciliaris, herbicidal effect grade (Digitaria ciliaris): 5 (Herbicidal ratio of 90% or more (almost completely withered)); Herbicidal effect grade, H: Echinochloa crus-galli var. crus-galli [3]: 5 (Herbicidal ratio of 90% or more (almost completely withered))
3 | CC(CC1CC(O)=C(c2c(C)cc(C)cc2C)C1=O)=NOCC1OCCO1 (stereo not shown) [1-111] | 0 (Herbicidal ratio of 5% or lower (almost no effect)) | 5 (Herbicidal ratio of 90% or more (almost completely withered)) | 3 (Herbicidal ratio of 40% or higher and lower than 70%) | 5 (Herbicidal ratio of 90% or more (almost completely withered)) | 5 (Herbicidal ratio of 90% or more (almost completely withered)) | 0 (Herbicidal ratio of 5% or lower (almost no effect)) | 0 (Herbicidal ratio of 5% or lower (almost no effect)) | 5 (Herbicidal ratio of 90% or more (almost completely withered)) | 5 (Herbicidal ratio of 90% or more (almost completely withered)) | 0 (Herbicidal ratio of 5% or lower (almost no effect)) | 1 (Herbicidal ratio of 5% or higher and lower than 20%) | 0 (Herbicidal ratio of 5% or lower (almost no effect)) | 5 (Herbicidal ratio of 90% or more (almost completely withered)) | 5 (Herbicidal ratio of 90% or more (almost completely withered)) |  |  |  |  |  |  | 
4 | CC(CC1CC(O)=C(c2c(C)cc(C)cc2C)C1=O)=NOCc1ccccc1Cl (stereo not shown) [1-113] | 0 (Herbicidal ratio of 5% or lower (almost no effect)) | 4 (Herbicidal ratio of 70% or higher and lower than 90%) | 3 (Herbicidal ratio of 40% or higher and lower than 70%) | 3 (Herbicidal ratio of 40% or higher and lower than 70%) | 2 (Herbicidal ratio of 20% or higher and lower than 40%) | 0 (Herbicidal ratio of 5% or lower (almost no effect)) | 0 (Herbicidal ratio of 5% or lower (almost no effect)) | 4 (Herbicidal ratio of 70% or higher and lower than 90%) | 4 (Herbicidal ratio of 70% or higher and lower than 90%) | 0 (Herbicidal ratio of 5% or lower (almost no effect)) | 1 (Herbicidal ratio of 5% or higher and lower than 20%) | 0 (Herbicidal ratio of 5% or lower (almost no effect)) | 5 (Herbicidal ratio of 90% or more (almost completely withered)) | 0 (Herbicidal ratio of 5% or lower (almost no effect)) |  |  |  |  |  |  | 
5 | CC#Cc1cc(C)c(C2=C(O)CC(CC(=NOC)C3CC3)C2=O)c(C)c1 (stereo not shown) [9-008] |  |  |  |  |  | 3 (Herbicidal ratio of 40% or higher and lower than 70%) |  |  |  |  |  |  |  |  | 0 (Herbicidal ratio of 5% or lower (almost no effect)) | 4 (Herbicidal ratio of 70% or higher and lower than 90%) | 4 (Herbicidal ratio of 70% or higher and lower than 90%) | 5 (Herbicidal ratio of 90% or more (almost completely withered)) | 5 (Herbicidal ratio of 90% or more (almost completely withered)) | 0 (Herbicidal ratio of 5% or lower (almost no effect)) | b: directly sowed rice plant, effect on crop grade (rice plant): 5 (Herbicidal ratio of 90% or more (almost completely withered)); G: Setaria viridis, herbicidal effect grade (Setaria viridis): 5 (Herbicidal ratio of 90% or more (almost completely withered)); Herbicidal effect grade, Q: Galium spurium (Galium spurium): 0 (Herbicidal ratio of 5% or lower (almost no effect)); M: Abutilon theophrasti, herbicidal effect grade (Abutilon theophrasti): 4 (Herbicidal ratio of 70% or higher and lower than 90%); Herbicidal effect grade, N: Amaranthus retroflexus (Amaranthus retroflexus): 4 (Herbicidal ratio of 70% or higher and lower than 90%); F: Digitaria ciliaris, herbicidal effect grade (Digitaria ciliaris): 5 (Herbicidal ratio of 90% or more (almost completely withered)); Herbicidal effect grade, H: Echinochloa crus-galli var. crus-galli [3]: 5 (Herbicidal ratio of 90% or more (almost completely withered))

From patent publication US11000033B2, “Ketone or oxime compound, and herbicide” (NISSAN CHEMICAL CORPORATION, priority 2014, dated 2021)
